# Data reported in US11266614B2, “Oral formulations of belinostat” (ONXEO, priority 2017, dated 2022).
# Legend:
# [1] = Amorphous or crystalline state by powder X-ray diffraction (XRPD); assay type: physicochemical; details: for XRPD 1 week 40/75 open: 1 week 40° C. 75% RH open; for XRPD initial: freshly prepared
# Experimental: Amorphous or crystalline state of freshly prepared spray dried dispersions described in Example 2 was assessed by Powder X-ray diffraction (XRPD). The same analysis was repeated after 1 week storage at 40° C. and 75% relative humidity in open conditions. XRPD patterns were obtained with Rigaku MiniFlex 600 X-Ray diffractometer operating with a copper anode ([…]; Kα2=1.54439 Å), generator set at 45 kV and 15 mA, in 2-theta range 3-40° 2θ, scanned at a rate of 2.5° 2θ per minute in continuous scanning mode, and using a D/teX Ultra high speed detector.
# [2] = Chemical stability: impurities by HPLC, initial and after 1 week 40° C./75% RH; assay type: physicochemical
# Experimental: After a secondary drying overnight at 40° C. 15% RH in a convection tray dryer, the different ASD were characterized for physical stability (XRPD, Tg versus Relative humidity), chemical stability (impurity by HPLC after 1 week 40° C./75% RH) and in vitro dissolution.
# Purity of each batch of ASD was tested by HPLC analysis on sample just after preparation and after one week storage in accelerated stability conditions: 40° C./75% RH open or closed. In closed conditions, ASDs were placed in closed bottles (heat induction seal) containing 1 g SORB-IT desiccant canister.
# HPLC-analysis was performed using an Agilent 1100 or 1200 system with binary or quaternary pump, a diode array detector, a refrigerated autosampler, and column oven. Data analysis was performed using Empower 3 software. The column used was Zorbax Bonus RP 4.6×150 mm (3.5 μm). Acetonitrile/20 mM Potassium phosphate buffer pH 3.0 was used as mobile phase with a gradient concentration at a flow rate of 1.0 mL/min; UV detection was used at a wavelength of 220 nm.
# [3] = Non-sink in vitro dissolution, micro-centrifuge method; assay type: physicochemical; details: PBS pH 6.5 with 0.5 wt % SIF; for Dissolution C90 min / Dissolution C20 h: 37° C., theoretical maximum 1000 μg/mL; for Dissolution C90 min: 90 min; for Dissolution C20 h: 1200 min
# Experimental: Dissolution of spray dried materials of belinostat has been tested in vitro, in non-sink conditions, in order to evaluate the ability of formulations to achieve supersaturation and sustainability of supersaturation relative to crystalline drug.
# Dissolution was assessed using micro-centrifuge method (Curatolo et al. Pharm Res 2009:26(6):1419-1431). Micro-centrifuge dissolution method consisted of introducing a 1.8 mg equivalent belinostat as ASD into an empty micro-centrifuge tube and add 1.8 mL total volume dissolution media (PBS pH 6.5 with 0.5 wt % Simulated Intestinal Fluid) to achieve a theoretical maximum belinostat concentration in solution of 1000 μg/mL. For some formulations (marked with* in Table 2), ASDs were first exposed in pH 2.0 gastric media at 2000 μg/mL for 30 min before to be transferred to the PBS pH 6.5 with 0.5 wt % Simulated Intestinal Fluid at a final theoretical maximum belinostat concentration in solution of 1000 μg/mL. Tubes were placed at 37° C. Aliquot (50 μL) were taken from supernatant after centrifugation 15 800 g for 1 min at each time point (5, 10, 20, 45, 90 and 1200 minutes). Between each time point, solids in the centrifuge tube were resuspended by mixing the sample continuously on the vortex mixer for 30 s and the tube was placed back at 37° C. Aliquot samples were diluted using acetonitrile and drug concentration was determined by HPLC.
# [4] = Glass transition temperature (Tg) by modulated DSC; assay type: physicochemical
# Experimental: To also evaluate the physical stability of prepared ASDs, glass transition temperature (Tg) was determined at two relative humidity (RH) conditions (<5% and 75% RH) by modulated differential scanning calorimetry (m-DSC).
# DSC curves were recorded using a TA Instruments Q2000 differential scanning calorimeter. Samples were heated under nitrogen flow from 0 to 200° C. at 2.5° C.±1.5° C./min in non-hermetically sealed pan for <5% RH analysis or from 0 to 130° C. at 2.5° C.±1.5° C./80 sec in hermetically sealed pan for 75% RH analysis.
# [5] = vorinostat: phase I trial; cited from earlier work
# [6] = cited from earlier work
# [7] = above pH 8.5; cited from earlier work
# [8] = cited from earlier work; remark: listed apart in the source
# [9] = 1 week 40° C./75% RH closed, desiccant
smiles,measurement,setting,value
O=C(/C=C/c1cccc(S(=O)(=O)Nc2ccccc2)c1)NO [Formulation 1],XRPD 1 week 40/75 open,[1],Crystalline
same,XRPD initial,[1],Crystalline
same,"Bel Acid, Initial",[2]; just after preparation,Bel Acid <0.05 area %
same,"Total imp, Initial",[2]; just after preparation,Total imp <0.05 area %
same,Dissolution C90 min,[3],270 µg/mL
same,Dissolution C20 h,[3],310 µg/mL
O=C(/C=C/c1cccc(S(=O)(=O)Nc2ccccc2)c1)NO [Formulation 2],XRPD 1 week 40/75 open,[1],Crystalline
same,XRPD initial,[1],Partially crystalline
same,physical state upon storage (in words),[1]; upon storage,undergoes recrystallization upon storage
same,Tg <5% RH,"[4]; <5% RH, m-DSC",53 °C
same,glass transition temperature (Tg),[4]; amorphous belinostat without polymer,about 53 °C
same,"Bel Acid, 1 week 40/75 closed",[2]; [9],Bel Acid 0.10 area %
same,"Bel Dimer, 1 week 40/75 closed",[2]; [9],Bel Dimer 1.34 area %
same,"Total imp, 1 week 40/75 closed",[2]; [9],Total imp 1.49 area %
same,"Bel Acid, 1 week 40/75 open",[2]; 1 week 40° C./75% RH open,Bel Acid 0.10 area %
same,"Bel Dimer, 1 week 40/75 open",[2]; 1 week 40° C./75% RH open,Bel Dimer 0.25 area %
same,Observation on storage 1 week 40/75 open,[2]; 1 week 40° C./75% RH open,Recrystallization
same,"Total imp, 1 week 40/75 open",[2]; 1 week 40° C./75% RH open,Total imp 0.42 area %
same,"Bel Acid, Initial",[2]; just after preparation,Bel Acid 0.05 area %
same,"Bel Dimer, Initial",[2]; just after preparation,Bel Dimer 0.48 area %
same,"Total imp, Initial",[2]; just after preparation,Total imp 0.59 area %
same,Observation during dissolution,[3],Recrystallization
same,Dissolution C90 min,[3],363 µg/mL
same,Dissolution C20 h,[3],387 µg/mL
O=C(CCCCCCC(=O)Nc1ccccc1)NO [Vorinostat],absolute oral bioavailability,[5],43%
same,permeability (in words),[6],moderate permeability
"O=C(/C=C/c1cccc(S(=O)(=O)Nc2ccccc2)c1)NO [belinostat, (2E)-N-hydroxy-3-[3-(phenylsulfamoyl)phenyl]prop-2-enamide]",chemical stability in liquid solution,[7],poor chemical stability
CC(O)C(=O)O.Cc1[nH]c2ccccc2c1CCNCc1ccc(/C=C/C(=O)NO)cc1 [panobinostat lactate],"aqueous solubility, maximum",[8]; pH 2 or 3,~5000 µg/mL
same,aqueous solubility at neutral pH,[8]; pH 6.8,0.3 mg/mL
same,aqueous solubility,[8]; pH 7.6,70 µg/mL
same,solubility in water (in words),[8]; water,slightly soluble in water
same,absolute oral bioavailability,[5],approximately 21%
same,permeability (in words),[6],highly permeable
